Patent US10294202B2, “Pyrrolidinones as herbicides” (FMC Corporation, priority 2013, dated 2019)

What was measured:
[1] = system: goosegrass; assay: Test C pre-/postemergence herbicide test; format: in vivo, Eleusine indica
Description: Seeds of plant species selected from blackgrass (Alopecurus myosuroides), ryegrass, Italian (Italian ryegrass, Lolium multiflorum), wheat (winter wheat, Triticum aestivum), galium (catchweed bedstraw, Galium aparine), corn (Zea mays), crabgrass, large (large crabgrass, Digitaria sanguinalis), foxtail, giant (giant foxtail, Setaria faberii), johnsongrass (Sorghum halepense), lambsquarters (Chenopodium album), morningglory (Ipomoea coccinea), nutsedge, yellow (yellow nutsedge, Cyperus esculentus), pigweed (Amaranthus retroflexus), ragweed (common ragweed, Ambrosia elatior), soybean (Glycine max), barnyardgrass (Echinochloa crus-galli), oilseed rape (Brassica napus), waterhemp (common waterhemp, Amaranthus rudis), kochia (Kochia scoparia), oat, wild (wild oat, Avena fatua), surinam grass (Brachiaria decumbens), foxtail, green (green foxtail, Setaria viridis), goosegrass (Eleusine indica), bromegrass, downy (downy bromegrass, Bromus tectorum), nightshade (eastern black nightshade, Solanum ptycanthum), cocklebur (common cocklebur, Xanthium strumarium), cupgrass, woolly (woolly cupgrass, Eriochloa villosa), bermudagrass (Cynodon dactylon), sunflower, (common oilseed sunflower, Helianthus annuus), Russian thistle (Salsola kali) and velvetleaf (Abutilon theophrasti) were planted into a blend of loam soil and sand and treated preemergence with test chemicals formulated in a non-phytotoxic solvent mixture which included a surfactant. At the same time, plants selected from these crop and weed species and also barley (winter barley, Hordeum vulgare), […]), chickweed (common chickweed, Stellaria media), deadnettle (henbit deadnettle, Lamium amplexicaule), and canarygrass (littleseed canarygrass, Phalaris minor) were planted in pots containing Redi-Earth® planting medium (Scotts Company, 14111 Scottslawn Road, Marysville, Ohio 43041) comprising spaghnum peat moss, vermiculite, wetting agent and starter nutrients and treated with postemergence applications of test chemicals formulated in the same manner. Plants ranged in height from 2 to 18 cm (1- to 4-leaf stage) for postemergence treatments. Treated plants and controls were maintained in a greenhouse for 13 to 15 days, after which time all species were compared to controls and visually evaluated. Plant response ratings, summarized in Table C, are based on a scale of 0 to 100 where 0 is no effect and 100 is complete control. A dash (-) response means no test result.

[2] = system: wild poinsettia; assay: Test E preemergence herbicide test; format: in vivo, Euphorbia heterophylla; set-up: key: 0 = no effect, 100 = complete control
Description: (§1) Seeds of plant species selected from corn (Zea mays), soybean (Glycine max), velvetleaf (Abutilon theophrasti), lambsquarters (Chenopodium album), wild poinsettia (Euphorbia heterophylla), pigweed, palmer (palmer pigweed, Amaranthus palmeri), waterhemp (common waterhemp, Amaranthus rudis), surinam grass (Brachiaria decumbens), crabgrass, large (large crabgrass, Digitaria sanguinalis), crabgrass, Brazil (Brazilian crabgrass, Digitaria horizontalis), panicum, fall (fall panicum, Panicum dichotomiflorum), foxtail, giant (giant foxtail, Setaria faberii), foxtail, green (green foxtail, Setaria viridis), goosegrass (Eleusine indica), johnsongrass (Sorghum halepense), ragweed (common ragweed, Ambrosia elatior), barnyardgrass (Echinochloa crus-galli), sandbur (southern sandbur, Cenchrus echinatus), arrowleaf […] rhombifolia), ryegrass, Italian (Italian ryegrass, Lolium multiflorum), dayflower, VA (Virginia dayflower, Commelina virginica), field bindweed (Convolvulus arvensis), morningglory (Ipomoea coccinea), nightshade (eastern black nightshade, Solanum ptycanthum), kochia (Kochia scoparia), nutsedge, yellow (yellow nutsedge, Cyperus esculentus), cocklebur (common cocklebur, Xanthium strumarium), smartweed (ladysthumb smartweed, Polygonum Persicaria) and beggarticks (hairy beggarticks, Bidens pilosa), were planted into a silt loam soil and treated preemergence with test chemicals formulated in a non-phytotoxic solvent mixture which included a surfactant. Treated plants and controls were maintained in a greenhouse for 21 days, after which time all species were compared to controls and visually evaluated. Plant response ratings, summarized in Table E, are based on a scale of 0 to 100 where 0 is no effect and 100 is complete control. A dash (-) response means no test result.

[3] = system: johnsongrass; assay: Test E preemergence herbicide test; format: in vivo, Sorghum halepense; set-up: key: 0 = no effect, 100 = complete control
Description: as §1

[4] = system: surinam grass; assay: Test E preemergence herbicide test; format: in vivo, Brachiaria decumbens; set-up: key: 0 = no effect, 100 = complete control
Description: as §1

[5] = system: crabgrass, Brazil; assay: Test E preemergence herbicide test; format: in vivo, Digitaria horizontalis; set-up: key: 0 = no effect, 100 = complete control
Description: as §1

[6] = system: monochoria; assay: Test F flood (paddy) test; format: in vivo, Monochoria vaginalis; conditions: 21 d, scale 0-100
Description: Three plastic pots (ca. 16-cm diameter) per rate were partially filled with sterilized Tama silt loam soil comprising a 35:50:15 ratio of sand, silt and clay and 2.6% organic matter. Separate plantings for each of the three pots were as follows. Seeds from the U.S. of monochoria (Monochoria vaginalis), sedge, umbrella (small-flower umbrella sedge, Cyperus difformis), bulrush, […] bulrush, Scirpus juncoides), and […] (purple […] coccinea), were planted into one 16-cm pot for each rate. Seeds from the U.S. of flatsedge, rice (rice flatsedge, Cyperus iria), sprangletop, Brdd. (bearded sprangletop, Leptochloa fascicularis), one stand of 9 or 10 water seeded rice seedlings (Rice, W.S. Jap, Oryza sativa cv. 'Japonica-[…]' or Rice, W.S. Ind, 'Indica'), and two stands of 3 or 4 seedlings of rice, transplanted (transplanted rice, Oryza sativa cv. 'Japonica-[…]') were planted into one 16-cm pot for each rate. Seeds from the U.S. of barnyardgrass (Echinochloa crus-galli), […] (common […], Alisma plantago-aquatica), and watergrass, late (late watergrass, Echinochloa oryzicola) were planted into one 16-cm pot for each rate. Plantings were sequential so that crop and weed species were at the 2.0 to 2.5-leaf stage at time of treatment. Potted plants were grown in a greenhouse with day/night temperature settings of 30/27° C., and supplemental balanced lighting was provided to maintain a 16-h photoperiod. Test pots were maintained in the greenhouse until test completion. At time of treatment, test pots were flooded to 3 cm above the soil surface, treated by application of test compounds directly to the paddy water, and then maintained at that water depth for the duration of the test. Effects of treatments on rice and weeds were visually evaluated by comparison to untreated controls after 21 d. Plant response ratings, summarized in Table F, are based on a scale of 0 to 100 where 0 is no effect and 100 is complete control. A dash (-) response means no test result.

[7] = Postemergence, 31 g ai/ha, scale 0 (no effect) to 100 (complete control)
[8] = Postemergence, 62 g ai/ha, scale 0 to 100 (0 no effect, 100 complete control)
[9] = Postemergence, 125 g ai/ha, scale 0 to 100 (0 no effect, 100 complete control)
[10] = Preemergence, 62 g ai/ha, scale 0 to 100
[11] = Preemergence, 125 g ai/ha, scale 0 to 100 (0 no effect, 100 complete control)
[12] = Preemergence, 31 g ai/ha, scale 0 to 100 (0 no effect, 100 complete control)
[13] = Postemergence, 250 g ai/ha, scale 0 to 100 (0 no effect, 100 complete control)

O=C1NCC(c2ccc(F)c(Cl)c2)C1C(=O)Nc1ccccc1F (stereo not drawn) [Compound 60]
Plant response rating, Goosegrass [1, 7]: 0
Plant response rating, Goosegrass [1, 8]: 0
Plant response rating, Goosegrass [1, 9]: 0
Plant response rating, Goosegrass [1, 10]: 0
Plant response rating, Goosegrass [1, 11]: 0
Goosegrass plant response rating [1, 12]: 0

O=C1NCC(c2ccc(OC(F)F)cc2)C1C(=O)Nc1cccc(F)c1F (racemic) [Compound 350]
Plant response rating, Poinsettia, Wild ([2]; 31 g ai/ha): 0
Plant response rating, Poinsettia, Wild ([2]; 62 g ai/ha): 0
Plant response rating, Poinsettia, Wild ([2]; 125 g ai/ha): 0
Plant response rating, Poinsettia, Wild ([2]; 250 g ai/ha): 30
Plant response rating, Johnsongrass ([3]; 31 g ai/ha): 0
Plant response rating, Johnsongrass ([3]; 62 g ai/ha): 0
Plant response rating, Johnsongrass ([3]; 125 g ai/ha): 0
Plant response rating, Johnsongrass ([3]; 250 g ai/ha): 0
Plant response rating, Surinam Grass ([4]; 31 g ai/ha): 0
Plant response rating, Surinam Grass ([4]; 62 g ai/ha): 0
Plant response rating, Surinam Grass ([4]; 125 g ai/ha): 50
Plant response rating, Surinam Grass ([4]; 250 g ai/ha): 65
Plant response rating, Crabgrass, Brazil ([5]; 31 g ai/ha): 0
Plant response rating, Crabgrass, Brazil ([5]; 62 g ai/ha): 75
Plant response rating, Crabgrass, Brazil ([5]; 125 g ai/ha): 95
Plant response rating, Crabgrass, Brazil ([5]; 250 g ai/ha): 98

O=C1NCC(c2ccc(F)c(F)c2)C1C(=O)Nc1cccc(F)c1F (racemic) [Compound 101]
Plant response rating, Monochoria ([6]; 64 g ai/ha): 75
Plant response rating, Monochoria ([6]; 125 g ai/ha): 100
Plant response rating, Monochoria ([6]; 250 g ai/ha): 100
Plant response rating, Monochoria ([6]; 500 g ai/ha): 100

O=C1NCC(c2cc(F)c(F)c(F)c2)C1C(=O)Nc1cccc(F)c1F (stereo not drawn) [Compound 48]
Plant response rating, Goosegrass ([1]; Postemergence, 16 g ai/ha, scale 0 to 100 (0 no effect, 100 complete control)): 10
Plant response rating, Goosegrass [1, 7]: 10
Plant response rating, Goosegrass [1, 8]: 10
Plant response rating, Goosegrass [1, 9]: 10
Plant response rating, Goosegrass [1, 10]: 10
Plant response rating, Goosegrass [1, 11]: 15
Plant response rating, Goosegrass ([1]; Preemergence, 16 g ai/ha, scale 0 to 100): 0
Goosegrass plant response rating [1, 12]: 0

O=C1NCC(c2ccc(C(F)(F)F)cc2)C1C(=O)Nc1cccc(F)c1F (stereo not drawn) [Compound 80, N-(2,3-difluorophenyl)-2-oxo-4-[4-(trifluoromethyl)phenyl]-3-pyrrolidinecarboxamide]
Plant response rating, Poinsettia, Wild ([2]; 16 g ai/ha): 0
Plant response rating, Poinsettia, Wild ([2]; 31 g ai/ha): 0
Plant response rating, Poinsettia, Wild ([2]; 62 g ai/ha): 0
Plant response rating, Poinsettia, Wild ([2]; 125 g ai/ha): 0
Plant response rating, Poinsettia, Wild ([2]; 250 g ai/ha): 0
Plant response rating, Johnsongrass ([3]; 16 g ai/ha): 0
Plant response rating, Johnsongrass ([3]; 31 g ai/ha): 0
Plant response rating, Johnsongrass ([3]; 62 g ai/ha): 0
Plant response rating, Johnsongrass ([3]; 125 g ai/ha): 10
Plant response rating, Johnsongrass ([3]; 250 g ai/ha): 30
Plant response rating, Surinam Grass ([4]; 16 g ai/ha): 30
Plant response rating, Surinam Grass ([4]; 31 g ai/ha): 40
Plant response rating, Surinam Grass ([4]; 62 g ai/ha): 50
Plant response rating, Surinam Grass ([4]; 125 g ai/ha): 60
Plant response rating, Surinam Grass ([4]; 250 g ai/ha): 70
Plant response rating, Crabgrass, Brazil ([5]; 125 g ai/ha): 70
Plant response rating, Crabgrass, Brazil ([5]; 250 g ai/ha): 95

O=C1NCCC1C(=O)N(c1ccc(F)c(F)c1)c1ccccc1F (stereo not drawn) [Compound 5, N-(3,4-difluorophenyl)-N-(2-fluorophenyl)-2-oxo-3-pyrrolidinecarboxamide]
Plant response rating, Goosegrass [1, 10]: 0
Plant response rating, Goosegrass [1, 11]: 0
Goosegrass plant response rating [1, 12]: 0
Plant response rating, Monochoria ([6]; 125 g ai/ha): 75
Plant response rating, Monochoria ([6]; 250 g ai/ha): 75
Plant response rating, Monochoria ([6]; 500 g ai/ha): 75
Plant response rating, Monochoria ([6]; 1000 g ai/ha): 75
Plant response rating, Monochoria ([6]; 2000 g ai/ha): 75

O=C1NCC(c2ccc(Cl)c(F)c2)C1C(=O)Nc1cccc(F)c1F (stereo not drawn) [Compound 52]
Plant response rating, Goosegrass [1, 7]: 0
Plant response rating, Goosegrass [1, 8]: 0
Plant response rating, Goosegrass [1, 9]: 20
Plant response rating, Goosegrass [1, 13]: 20
Plant response rating, Goosegrass [1, 10]: 20
Plant response rating, Goosegrass [1, 11]: 60
Goosegrass plant response rating [1, 12]: 10

CN1CC(c2ccc(F)c(F)c2)C(C(=O)Nc2cccc(F)c2F)C1=O (stereo not drawn) [Compound 303]
Plant response rating, Monochoria ([6]; 62 g ai/ha): 100
Plant response rating, Monochoria ([6]; 125 g ai/ha): 100
Plant response rating, Monochoria ([6]; 250 g ai/ha): 100
Plant response rating, Monochoria ([6]; 500 g ai/ha): 100

O=C1NCC(c2cc(F)c(F)cc2F)C1C(=O)Nc1cccc(F)c1F (stereo not drawn) [Compound 50]
Plant response rating, Goosegrass [1, 7]: 25
Plant response rating, Goosegrass [1, 8]: 25
Plant response rating, Goosegrass [1, 9]: 25
Plant response rating, Goosegrass [1, 13]: 25

O=C1NCC(c2cccc(OC(F)(F)F)c2)C1C(=O)Nc1ccccc1F (stereo not drawn) [Compound 69]
Goosegrass plant response rating ([1]; Preemergence, 31 g ai/ha, scale 0 to 100, 0 is no effect and 100 is complete control): 20
Plant response rating, Goosegrass [1, 10]: 40
Plant response rating, Goosegrass [1, 11]: 40
Plant response rating (scale of 0 to 100), Goosegrass ([1]; Preemergence, 250 g ai/ha): 75

O=C1NCC(c2ccc(C(F)(F)F)cc2)C1C(=O)Nc1cccc(F)c1F (racemic) [Compound 202]
Plant response rating, Poinsettia, Wild ([2]; 31 g ai/ha): 0
Plant response rating, Poinsettia, Wild ([2]; 62 g ai/ha): 0
Plant response rating, Poinsettia, Wild ([2]; 125 g ai/ha): 25
Plant response rating, Poinsettia, Wild ([2]; 250 g ai/ha): 65
Plant response rating, Johnsongrass ([3]; 31 g ai/ha): 0
Plant response rating, Johnsongrass ([3]; 62 g ai/ha): 0
Plant response rating, Johnsongrass ([3]; 125 g ai/ha): 20
Plant response rating, Johnsongrass ([3]; 250 g ai/ha): 25
Plant response rating, Surinam Grass ([4]; 31 g ai/ha): 20
Plant response rating, Surinam Grass ([4]; 125 g ai/ha): 65
Plant response rating, Surinam Grass ([4]; 250 g ai/ha): 95
Plant response rating, Crabgrass, Brazil ([5]; 31 g ai/ha): 80
Plant response rating, Crabgrass, Brazil ([5]; 62 g ai/ha): 98
Plant response rating, Crabgrass, Brazil ([5]; 125 g ai/ha): 98
Plant response rating, Crabgrass, Brazil ([5]; 250 g ai/ha): 98

O=C1NCC(c2cccc(C(F)F)c2)C1C(=O)Nc1ccccc1F (racemic) [Compound 210]
Plant response rating, Monochoria ([6]; 125 g ai/ha): 65
Plant response rating, Monochoria ([6]; 250 g ai/ha): 85
Plant response rating, Monochoria ([6]; 500 g ai/ha): 100
